# What was measured:
# [1] = phase II trial, cited from earlier work
# [2] = target: T1, recombinant human NK3 receptor (Homo sapiens, UniProt P29371); experiment: [3H]SR142801 competition binding assay; conditions: hNK3 receptor binding, [3H]SR142801, membranes from HEK293 cells transiently expressing recombinant human NK3 receptor
# T1 construct: expressed in transfected cells; host or cells: HEK293 cells (transient expression), membranes
# T1 sequence (P29371 1-465): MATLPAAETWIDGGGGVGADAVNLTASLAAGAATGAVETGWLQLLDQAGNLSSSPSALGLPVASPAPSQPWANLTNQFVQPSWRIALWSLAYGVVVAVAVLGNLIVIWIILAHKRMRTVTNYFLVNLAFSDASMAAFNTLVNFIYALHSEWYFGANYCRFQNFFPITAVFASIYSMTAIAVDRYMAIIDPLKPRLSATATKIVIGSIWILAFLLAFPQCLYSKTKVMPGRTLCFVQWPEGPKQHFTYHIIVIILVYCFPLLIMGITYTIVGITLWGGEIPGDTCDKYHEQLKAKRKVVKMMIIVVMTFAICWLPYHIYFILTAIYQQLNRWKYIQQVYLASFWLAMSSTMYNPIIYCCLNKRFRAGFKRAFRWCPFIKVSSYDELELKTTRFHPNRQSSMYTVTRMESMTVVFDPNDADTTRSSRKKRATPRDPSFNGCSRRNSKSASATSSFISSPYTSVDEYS
# Method: [^3H]SR142801 competition binding assay
# hNK3 receptor binding experiment were performed using [^3H]SR142801 (Catalog No. TRK1035, specific activity: 74.0 Ci/mmol, Amersham, GE Healthcare UK limited, Buckinghamshire, UK) and membrane isolated from HEK293 cells transiently expressing recombinant human NK3 receptor. After thawing, the membrane homogenates were centrifuged at 48,000×g for 10 min at 4° C., the pellets were resuspended in the 50 mM Tris-HCl, 4 mM MnCl2, 1 μM phosphoramidon, 0.1% BSA binding buffer at pH 7.4 to a final assay concentration of 5 μg protein/well. […] At the end of the incubation, membranes were filtered onto unitfilter (96-well white microplate with bonded GF/C filter preincubated 1 h in 0.3% PEI+0.3% BSA, Packard BioScience, Meriden, Conn.) with a Filtermate 196 harvester (Packard BioScience) and washed 4 times with ice-cold 50 mM Tris-HCl, pH 7.4 buffer. Nonspecific binding was measured in the presence of 10 μM SB222200 for both radioligands. The radioactivity on the filter was counted (5 min) on a Packard Top-count microplate scintillation counter with quenching correction after addition of 45 μl of microscint 40 (Canberra Packard S. A., Zürich, Switzerland) and shaking for 1 h. Inhibition curves were fitted according to the Hill equation: y=100/(1+(x/IC50)^nH), where nH=slope factor using Excel-fit 4 software (Microsoft). IC50 values were derived from the inhibition curve and the affinity constant (Ki) values were calculated using the Cheng-Prussoff equation Ki=IC50/(1+[L]/KD) where [L] is the concentration of radioligand and KD is its dissociation constant at the receptor, derived from the saturation isotherm. All experiments were performed in duplicate and the mean±standard error (SEM) of the individual Ki values was calculated.
SMILES,"activity on positive symptoms of schizophrenia ([1]; altered behavior, delusion, hallucinations, extreme emotions, excited motor activity, incoherent speech)","activity in the treatment of negative symptoms ([1]; depression, anhedonia, social isolation or memory and attention deficits)",Ki [2]
"CC(=O)N(C)C1(c2ccccc2)CCN(CCC[C@]2(c3ccc(Cl)c(Cl)c3)CCCN(C(=O)c3ccccc3)C2)CC1 [SR 142,801, Osanetant]",active,inactive,
"CN(Cc1ccc(C(F)(F)F)c(F)c1)[C@H]1CN(C(=O)c2ccc(C#N)nc2)C[C@@H]1c1ccc(Cl)c(Cl)c1 (racemic) [Example 26, 5-{(3SR,4RS)-3-(3,4-Dichloro-phenyl)-4-[(3-fluoro-4-trifluoromethyl-benzyl)-methyl-amino]-pyrrolidine-1-carbonyl}-pyridine-2-carbonitrile]",,,0.0148 µM
"CN(Cc1ccc(C(F)(F)F)c(F)c1)[C@H]1CN(C(=O)c2ccc3c(c2)OCO3)C[C@@H]1c1ccc(Cl)c(Cl)c1 (racemic) [Example 17, Benzo[1,3]dioxol-5-yl-{(3SR,4RS)-3-(3,4-dichloro-phenyl)-4-[(3-fluoro-4-trifluoromethyl-benzyl)-methyl-amino]-pyrrolidin-1-yl}-methanone]",,,0.0383 µM
"CN(Cc1ccc(C(F)(F)F)c(F)c1)[C@H]1CN(C(=O)c2ccc(F)nc2)C[C@@H]1c1ccc(Cl)c(Cl)c1 (racemic) [Example 28, {(3SR,4RS)-3-(3,4-Dichloro-phenyl)-4-[(3-fluoro-4-trifluoromethyl-benzyl)-methyl-amino]-pyrrolidin-1-yl}-(6-fluoro-pyridin-3-yl)-methanone]",,,0.0356 µM
"CN(Cc1ccc(C(F)(F)F)c(F)c1)[C@H]1CN(C(=O)c2ccc(N3CCCS3(=O)=O)cc2)C[C@@H]1c1ccc(Cl)c(Cl)c1 (racemic) [Example 42, {(3SR,4RS)-3-(3,4-Dichloro-phenyl)-4-[(3-fluoro-4-trifluoromethyl-benzyl)-methyl-amino]-pyrrolidin-1-yl}-[4-(1,1-dioxo-1-6-isothiazolidin-2-yl)-phenyl]-methanone]",,,0.0335 µM
"CN(Cc1ccc(C(F)(F)F)c(F)c1)[C@H]1CN(C(=O)c2ccc(C#N)cc2)C[C@@H]1c1ccc(Cl)c(Cl)c1 (racemic) [Example 6, 4-{(3SR,4RS)-3-(3,4-Dichloro-phenyl)-4-[(3-fluoro-4-trifluoromethyl-benzyl)-methyl-amino]-pyrrolidine-1-carbonyl}-benzonitrile]",,,0.0209 µM
"CN(Cc1ccc(C(F)(F)F)c(F)c1)[C@H]1CN(C(=O)c2ccc(-c3ccncc3)cc2)C[C@@H]1c1ccc(Cl)c(Cl)c1 (racemic) [Example 45, {(3SR,4RS)-3-(3,4-Dichloro-phenyl)-4-[(3-fluoro-4-trifluoromethyl-benzyl)-methyl-amino]-pyrrolidin-1-yl}-(4-pyridin-4-yl-phenyl)-methanone]",,,0.0025 µM
"CN(Cc1ccc(C(F)(F)F)c(F)c1)[C@H]1CN(C(=O)c2ccc(-n3ccnc3)cc2)C[C@@H]1c1ccc(Cl)c(Cl)c1 (racemic) [Example 41, {(3SR,4RS)-3-(3,4-Dichloro-phenyl)-4-[(3-fluoro-4-trifluoromethyl-benzyl)-methyl-amino]-pyrrolidin-1-yl}-(4-imidazol-1-yl-phenyl)-methanone]",,,0.0107 µM
"COc1ccc(C(=O)N2C[C@H](c3ccc(Cl)c(Cl)c3)[C@@H](N(C)Cc3ccc(C(F)(F)F)c(F)c3)C2)cn1 (racemic) [Example 29, {(3SR,4RS)-3-(3,4-Dichloro-phenyl)-4-[(3-fluoro-4-trifluoromethyl-benzyl)-methyl-amino]-pyrrolidin-1-yl}-(6-methoxy-pyridin-3-yl)-methanone]",,,0.0084 µM
"CN(Cc1ccc(C(F)(F)F)c(F)c1)[C@H]1CN(C(=O)c2cccc(C#N)c2)C[C@@H]1c1ccc(Cl)c(Cl)c1 (racemic) [Example 9, 3-{(3SR,4RS)-3-(3,4-Dichloro-phenyl)-4-[(3-fluoro-4-trifluoromethyl-benzyl)-methyl-amino]-pyrrolidine-1-carbonyl}-benzonitrile]",,,0.0474 µM
"CN(Cc1ccc(C(F)(F)F)cc1)[C@H]1CN(C(=O)c2ccc(C#N)cc2)C[C@@H]1c1ccc(Cl)c(Cl)c1 (racemic) [Example 68, 4-{(3SR,4RS)-3-(3,4-Dichloro-phenyl)-4-[methyl-(4-trifluoromethyl-benzyl)-amino]-pyrrolidine-1-carbonyl}-benzonitrile]",,,0.0146 µM
"CN(Cc1ccc(C(F)(F)F)c(F)c1)[C@H]1CN(C(=O)c2ccc(O)nc2)C[C@@H]1c1ccc(Cl)c(Cl)c1 (racemic) [Example 48, {(3SR,4RS)-3-(3,4-Dichloro-phenyl)-4-[(3-fluoro-4-trifluoromethyl-benzyl)-methyl-amino]-pyrrolidin-1-yl}-(6-hydroxy-pyridin-3-yl)-methanone]",,,0.0478 µM
"Cc1cc(C(=O)N2C[C@H](c3ccc(Cl)c(Cl)c3)[C@@H](N(C)Cc3ccc(C(F)(F)F)c(F)c3)C2)ccn1 (racemic) [Example 33, {(3SR,4RS)-3-(3,4-Dichloro-phenyl)-4-[(3-fluoro-4-trifluoromethyl-benzyl)-methyl-amino]-pyrrolidin-1-yl}-(2-methyl-pyridin-4-yl)-methanone]",,,0.0111 µM
"CN(Cc1ccc(C(F)(F)F)c(F)c1)[C@H]1CN(C(=O)c2ccc3cnccc3n2)C[C@@H]1c1ccc(Cl)c(Cl)c1 (racemic) [Example 51, {(3SR,4RS)-3-(3,4-Dichloro-phenyl)-4-[(3-fluoro-4-trifluoromethyl-benzyl)-methyl-amino]-pyrrolidin-1-yl}-[1,6]naphthyridin-2-yl-methanone]",,,0.0146 µM
"CN(Cc1ccc(C(F)(F)F)c(F)c1)[C@H]1CN(C(=O)c2ccc(-c3cnco3)cc2)C[C@@H]1c1ccc(Cl)c(Cl)c1 (racemic) [Example 67, {(3SR,4RS)-3-(3,4-Dichloro-phenyl)-4-[(3-fluoro-4-trifluoromethyl-benzyl)-methyl-amino]-pyrrolidin-1-yl}-(4-oxazol-5-yl-phenyl)-methanone]",,,0.0045 µM
"CN(Cc1ccc(C(F)(F)F)c(F)c1)[C@H]1CN(C(=O)c2ccc(-c3nnco3)cc2)C[C@@H]1c1ccc(Cl)c(Cl)c1 (racemic) [Example 47, {(3SR,4RS)-3-(3,4-Dichloro-phenyl)-4-[(3-fluoro-4-trifluoromethyl-benzyl)-methyl-amino]-pyrrolidin-1-yl}-(4-[1,3,4]oxadiazol-2-yl-phenyl)-methanone]",,,0.0023 µM

# From US8293770B2, “Pyrrolidine derivatives as NK-3 receptor antagonists” (Hoffmann-La Roche Inc., priority 2008, dated 2012)
